In patent US20050119240A1, “1-methyl-20-epi-vitamin d derivative” (priority 2000, published 2005) one finds VDR binding properties data, which are given here for 4 compounds.

The assay has as its target T1, Bovine thymus 1α,25-dihydroxyvitamin D3 receptor (VDR) (Bos taurus, UniProt Q28037).
T1 sequence (Q28037 1-426): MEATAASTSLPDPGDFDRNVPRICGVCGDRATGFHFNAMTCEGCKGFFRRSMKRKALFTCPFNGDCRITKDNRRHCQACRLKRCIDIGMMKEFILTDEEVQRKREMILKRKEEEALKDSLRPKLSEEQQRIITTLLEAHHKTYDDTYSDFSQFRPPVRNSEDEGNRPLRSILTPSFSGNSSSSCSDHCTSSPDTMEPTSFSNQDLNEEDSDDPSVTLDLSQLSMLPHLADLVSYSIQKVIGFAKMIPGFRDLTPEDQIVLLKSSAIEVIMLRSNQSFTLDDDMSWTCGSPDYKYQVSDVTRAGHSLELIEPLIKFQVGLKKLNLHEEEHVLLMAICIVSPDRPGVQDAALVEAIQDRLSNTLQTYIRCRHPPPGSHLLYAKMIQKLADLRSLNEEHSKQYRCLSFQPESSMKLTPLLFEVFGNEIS
Conditions: relative value with that of 1α,25-dihydroxyvitamin D3 taken as 100; [3H]-1α,25-dihydroxyvitamin D3 0.1 nM, incubation overnight at 4° C.

`C=C1/C(=C\C=C2/CCC[C@]3(C)[C@@H]([C@@H](C)CCCC(C)(C)O)CC[C@@H]23)C[C@H](O)C[C@]1(C)O` [Compound 4, (5Z,7E)-(1S,3S,20S)-1Methyl-9,10-seco-5,7,10(19)-cholestatriene-1,3,25-triol] registered a VDR binding properties of 1.
As to `C=C1/C(=C\C=C2/CCC[C@@]3(C)C2CCC3[C@@H](C)CCCC(C)(C)O)C[C@@H](O)C[C@]1(C)O` (stereo partly drawn) [Compound 6, (5Z,7E)-(1S,3R,20S)-1-Methyl-9,10-seco-5,7,10(19)-cholestatriene-1,3,25-triol], the VDR binding properties is recorded as 1.
On to `C=C1C(=CC=C2CCCC3(C)C2CCC3C(C)CCCC(C)(C)O)CC(O)CC1(C)O` [Compound 9, (5Z,7E)-(1R,3R,20S)-1-Methyl-9,10-seco-5,7,10(19)-cholestatriene-1,3,25-triol], for which the VDR binding properties is 0.017.
In the case of `C=C1/C(=C\C=C2/CCC[C@@]3(C)C2CCC3[C@@H](C)CCCC(C)(C)O)C[C@H](O)C[C@@]1(C)O` (stereo partly drawn) [Compound 11, (5Z,7E)-(1R,3S,20S)-1-Methyl-9,10-seco-5,7,10(19)-cholestatriene-1,3,25-triol] it was 0.004.
